Key:
pTau = pTau in the hippocampus of treated Tg2576 mice (western blot); format: in vivo; details: Vorinostat 12.5 mg/Kg, Tadalafil 1 mg/Kg, mean ± standard deviation
Procedure: (§1) Amyloid and Tau pathology was analyzed in the hippocampus of treated animals. Hippocampus was weighed and homogenized in 8 mass of ice-cold buffer containing a cold lysis buffer with protease inhibitors (0.2 M NaCl, 0.1 M HEPES (4-(2-hydroxyethyl)-1-piperazineethanesulfonic acid), 10% glycerol, 200 mM NaF, 2 mM Na4P2O7, 5 mM EDTA (ethylenediaminetetraacetic acid), 1 mM EGTA (ethylene glycol tetraacetic acid), 2 mM DTT (dithiothreitol), 0.5 mM PMSF (phenylmethylsulfonyl fluoride), 1 mM Na3VO4 and Complete Protease Inhibitor Cocktail, Roche Diagnostics), centrifuged at 14,000×g 4° C. for 20 min and the supernatant was aliquoted and stored at −80° C. Total protein concentrations were determined using the BioRad Bradford protein assay (BioRad Laboratories).
pTau was analyzed by western blot in the hippocampus of treated animals. […] Following two washes in TBS/Tween20 and one wash in TBS alone, immunolabelled protein bands were detected using HRP-conjugated anti-rabbit or anti-mouse antibodies (diluted 1:5,000 Santa Cruz). Binding was visualised by enhanced chemiluminescence (ECL, GE Healthcare Bioscience, Buckinghamshire, UK) and autoradiographic exposure to Hyperfilm ECL (GE Healthcare Bioscience), using Quantity One™ software v.4.6.3 (Bio-Rad) for quantification.

Tg2576 mice [1] = assay: Fear Conditioning (FC) test, memory function in aged-Tg2576 mice; format: in vivo; details: Tg2576 mice (14-16 month), chronic treatment; Vorinostat 12.5 mg/kg i.p., Tadalafil 1 mg/kg p.o.; mean ± standard deviation
Procedure: (§2) The effect on memory function of Vorinostat (12.5 mg/kg, i.p.), Tadalafil (1 mg/Kg p.o.) and the combination (Vorinostat, 12.5 mg/Kg+Tadalafil 1 mg/Kg) was studied in Tg2576 mice (14-16 month) after a chronic treatment of 2-5 weeks by using two different behavioral tasks: the Fear Conditioning (FC) and the Morris water maze (MWM) tests. Tg2576 mice express the human 695-aa isoform of APP (hAPP) containing the Swedish double mutation, which favours AP production.
The behavioural procedure of FC task involved three phases: habituation, training and testing. During habituation phase, mice were habituated to the conditioning box (context) for 5 min with no stimuli presented. 24 hours later (training phase), mice were placed in the training chamber and allowed to explore for 2 min, afterward, a footshock (0.3 mA) unconditioned stimulus was administered (2 s) and 30 s after mice were returned to their home cage.
Mice were returned to the conditioning chamber 24 h after training and allowed to explore the context for 2 min, during which freezing behavior was recorded (contextual long term memory). Freezing scores were expressed as percentages. The conditioning procedure was carried out in a StartFear system (Panlab S.L., Barcelona, Spain) that allows recording and analysis of the signal generated by the animal movement through a high sensitivity Weight Transducer system. […]

Tg2576 mice [2] = assay: Reversal MWM after a 4-weeks wash-out period in aged-Tg2576 mice; format: in vivo; details: Retention phase of Reversal_MWM test, day 6th, after 4-weeks wash-out, Vorinostat 12.5 mg/Kg, Tadalafil 1 mg/Kg, mean ± standard deviation
Procedure: as §2
(§3) The MWM and the revesal_MWM test was used to evaluate spatial memory as previously described (Ricobaraza et al., 2009; Neuropsychopharmacology, 34, 1721-1732 and Ricobaraza et al., 2011, Frontiers in bioscience, 3, 1375-84). After 3 weeks of treatments, groups of animals underwent spatial reference learning and memory testing in the MWM. […] In the probe trials the platform was removed from the pool, and the percentage of time spent in the quadrant where the platform was previously set was recorded.
After a 4-weeks wash-out period of the drugs, a reversal phase of MWM was carried out. […] Memory retention was analyzed in a probe at day 6.
(§4) All trials were monitored by a camera above the center of the pool connected to a SMART-LD program (Panlab S.L., Barcelona, Spain) for subsequent analysis of escape latencies, swimming speed, path length and percent time spent in each quadrant of the pool during probe trials. […]

Aβ42 = Aβ42 levels in hippocampal extracts of treated Tg2576 mice (sandwich ELISA); format: in vivo; details: Vorinostat 12.5 mg/Kg, Tadalafil 1 mg/Kg, mean ± standard deviation
Procedure: as §1
Aβ42 levels in hippocampal extracts were measured with the 3D6 antibody (specific for amino acids 1-5 of Aβ; kit from Biosource, USA) using a sensitive sandwich ELISA kit from Biosource (Camarillo, Ca, USA) according to the manufacturer's instructions.

[3] = system: acetylated histone 3 at Lys9 (AcH3K9); assay: HDAC activity in wild type neurons: Western blot of acetylated histone 3 (AcH3K9) in primary neuronal cultures; format: cell-based, mice; details: 2 h
Procedure: (§5) The cellular assay to determine HDAC activity was assessed by Western blot analysis using a specific antibody against acetylated histone 3 at Lys9 (AcH3K9, Cell Signalling).
Primary neuronal cultures derived from the hippocampus and cortex of embryonic day 16 of wild type mice were used. Tissue was triturated using glass pipettes until neurons were dissociated. Neurons were plated with serum-free neurobasal media with B27 supplement (Invitrogen, Gaithersburg, Md.) and 2 mM L-glutamine on poly-L-lysine-treated (0.1 mg/ml; Sigma) 35 mm dishes.
To determine the concentration-response curve effect of Vorinostat and Tadalafil, cell cultures of 15 days in vitro were treated at different concentrations (10, 100 and 500 nM) during 2 h (Table 5).
Thus, to determine if a synergistic effect on epigenetic mark (AcH3) exists when both compounds are combined, Vorinostat at 50 nM was combined with Tadalafil at different concentrations (12.5, 25, 50, 100 and 200 nM) during 2 h (Table 6).
as §1, with “Cells were collected” for “Amyloid and Tau pathology was analyzed”, “a” for “the hippocampus of treated animals. Hippocampus was weighed and homogenized in 8 mass of ice-cold”
Protein samples were mixed with Laemmli sample buffer, resolved onto SDS-polyacrylamide gels and transferred to nitrocellulose membrane. The membranes were blocked with 5% milk, 0.05% Tween-20 in PBS (Phosphate-Buffered Saline) or TBS (Tris-Buffered Saline) followed by overnight incubation with the following primary antibodies: rabbit polyclonal anti-acetylated Histone 3 (acetyl K9, Cell Signalling 1:1000), mouse monoclonal anti-actin (Sigma, 1:50000) in the corresponding buffer. Following two washes in TBS/Tween20 and one wash in TBS alone, immunolabeled protein bands were detected by using HRP-conjugated anti-rabbit or anti-mouse antibody (Santa Cruz; dilution 1:5000) following an enhanced chemiluminescence system (ECL, GE Healthcare Bioscience, Buckinghamshire, UK), and autoradiographic exposure to HyperfilmtECL (GE Healthcare Bioscience). Quantity One™ software v.4.6.3 (Bio-Rad) was used for quantification.

Tg2576 mice [4] = assay: Morris water maze (MWM) test, memory retention in aged-Tg2576 mice; format: in vivo; details: Retention phase of MWM test, day 9th, Vorinostat 12.5 mg/Kg i.p., Tadalafil 1 mg/Kg p.o., mean ± standard deviation
Procedure: as §2
as §3, with “MWM. The water maze was a circular pool (diameter 1.2 m) filled with water maintained at 20° C. and made opaque by the addition of non-toxic white paint.” for “MWM.”
as §4

[5] = system: acetylated histone 3 at Lys9 (AcH3K9); assay: HDAC activity in SHSY-5Y: Western blot of acetylated histone 3 (AcH3K9); format: cell-based, human; details: Vorinostat 10 nM alone, 2 hours, SHSY-5Y cell line
Procedure: as §5
A human neuroblastoma cell line (SHSY-5Y) was also used. Cell line was obtained from ATCC (CRL-2266) (Biedler et al., Cancer Research, 38, 3751-3757 1978) and cultured in 35 mm plates (Becton Dickinson, N.J.). The cells were grown to 90% confluence at 37° C. in an atmosphere of 5% CO2 and in Dulbecco's modified Eagle's medium supplemented with Glutamax (Gibco, Invitrogen, CA), 100 units/ml penicillin/streptomycin, 1× Minimum Essential Media (MEM) non essential amino acids and 10% fetal bovine serum (Gibco, Invitrogen, CA).
as §1, with “Cells were collected” for “Amyloid and Tau pathology was analyzed”, “a” for “the hippocampus of treated animals. Hippocampus was weighed and homogenized in 8 mass of ice-cold”, “Laboratories). […]” for “Laboratories).”

Row | Structure (SMILES) | pTau/tTau in hippocampus (pTau) | FC (% freezing) (Tg2576 mice [1]) | RMWM (% of time on right quadrant) (Tg2576 mice [2]) | Aβ42 levels in hippocampus (Aβ42) | AcH3 increment vs basal (no treatment) ([3]; compound alone 10 nM) | AcH3 increment vs basal (no treatment) ([3]; compound alone 100 nM) | AcH3 increment vs basal (no treatment) ([3]; compound alone 500 nM) | MWM (% of time on right quadrant) (Tg2576 mice [4]) | AcH3 increment vs basal (no treatment) [5] | AcH3 increment vs basal (no treatment) ([3]; Vorinostat 50 nM alone)
1 | CN1CC(=O)N2[C@H](c3ccc4c(c3)OCO4)c3[nH]c4ccccc4c3C[C@@H]2C1=O [Tadalafil, (6R,12aR)-6-(1,3-Benzodioxol-5-yl)-2-methyl-2,3,6,7,12,12a-hexahydropyrazino[1′,2′: 1,6]pyrido[3,4-b]indole-1,4-dione] | 0.32 ± 0.03 | 41.38 ± 12.3% | 21.26 ± 3.40% | 14.89 ± 5.17 pg/mg | + (basal ×1 means no increment (+)) | + (basal ×1 means no increment (+)) | + (basal ×1 means no increment (+)) | 23.3 ± 7.63% | – | –
2 | O=C(CCCCCCC(=O)Nc1ccccc1)NO [Vorinostat, 8-(hydroxyamino)-8-oxo-N-phenyl-octanamide] | 0.56 ± 0.09 | 51.17 ± 14.8% | 14.88 ± 5.88% | 12.81 ± 4.68 pg/mg | + (basal ×1 means no increment (+)) | ++ (basal ×2≦(++)) | ++ (basal ×2≦(++)) | 16.3 ± 4.69% | + (basal ×1 means no increment (+)) | + (basal ×1 means no increment (+))

— patent US20170231931A1, “PRODUCTS FOR THE TREATMENT AND PREVENTION OF NEUROLOGICAL DISORDERS COURSING WITH A COGNITION DEFICIT OR IMPAIRMENT, AND OF NEURODEGENERATIVE DISEASES” (FUNDACIÓN PARA LA INVESTIGACIÓN MÉDICA APLICADA, priority 2014, published 2017)
